Results published in US20260345619A1 (Principia Biopharma Inc., priority 2023, published 2026).

Assay: Pre-bronchodilator FEV1 and percent predicted FEV1 by spirometry, change from baseline
Format: in vivo, human
Details: for Change from baseline in pre-bronchodilator FEV1, LS Mean (SE) / Change from baseline in pre-bronchodilator FEV1, LS Mean Diff vs. placebo (95% CI) / Change from baseline in pre-bronchodilator FEV1, Mean (SD): EOT (Week 12); for FEV1 change / improvement (in words): following ICS/LABA withdrawal, both cohorts
Procedure: Spirometry is a standard test to measure patients' lung function.
The primary endpoint was the proportion of patients with LOAC. The key secondary endpoint for the study was change in pre-bronchodilator FEV1 from baseline at EOT.
Reversibility is defined as an increase of the absolute FEV1 after administration of bronchodilator and is measured by spirometry as postbronchodilator increase in FEV1 in percent of the prebronchodilator FEV1. After spirometry for measuring prebronchodilator FEV1, participants were to receive 2-4 puffs of albuterol/salbutamol or levalbuterol/levosalbutamol from a primed MDI. The postbronchodilator spirometry may have been repeated several times within 30 minutes after administration of bronchodilator. Alternatively, and only if it was consistent with usual office practice (to be documented), reversibility may have been performed using inhalation of nebulized albuterol/salbutamol or levalbuterol/levosalbutamol.
Secondary endpoints included pre-bronchodilator FEV1 change from baseline at EOT, ACQ-5 score change from baseline, and AQLQ score change from baseline. Other secondary and exploratory endpoints are described in Table 2.

[1] = 400 mg TID, Week 12, baseline FeNO ≥35 ppb
[2] = 400 mg TID, Week 12, baseline IgA <2190 mg/L (median)
[3] = 400 mg TID, Week 12, baseline IgA ≥2190 mg/L (median)
[4] = 400 mg TID, Week 12, baseline IgE <100 IU/mL
[5] = 400 mg TID, Week 12, baseline IgE <121.85 IU/mL (median)
[6] = 400 mg TID, Week 12, baseline IgE ≥100 IU/mL
[7] = 400 mg TID, Week 12, baseline IgE ≥121.85 IU/mL (median)
[8] = 400 mg TID, Week 12, baseline blood eosinophils <0.15 10^9/L
[9] = 400 mg TID, Week 12, baseline blood eosinophils <0.3 10^9/L
[10] = 400 mg TID, Week 12, baseline blood eosinophils ≥0.15-<0.3 10^9/L
[11] = 400 mg TID, Week 12, baseline blood eosinophils ≥0.3 10^9/L
[12] = 400 mg TID, Week 12, baseline percent predicted FEV1 <77% (median)
[13] = 400 mg TID, Week 12, baseline percent predicted FEV1 <80%
[14] = 400 mg TID, Week 12, baseline percent predicted FEV1 ≥77% (median)
[15] = 400 mg TID, Week 12, baseline percent predicted FEV1 ≥80%
[16] = 400 mg TID, Week 12, baseline weight ≥60-<90 kg
[17] = 400 mg TID, Week 12, baseline weight ≥90 kg
[18] = 400 mg TID, Week 12, smoking history Former
[19] = 400 mg TID, Week 12, smoking history Never
[20] = 400 mg TID, low EOS (<0.15) and low FeNO (<25), mITT
[21] = 400 mg TID, Week 2, observed/LOCF imputed, mITT
[22] = 400 mg TID, Week 4, observed/LOCF imputed, mITT
[23] = 400 mg TID, Week 6, observed/LOCF imputed, mITT
[24] = 400 mg TID, Week 8, observed/LOCF imputed, mITT
[25] = 400 mg TID, Week 10, observed/LOCF imputed, mITT
[26] = 400 mg TID, Week 12 (EOT), MMRM supplementary analysis, mITT
[27] = 400 mg TID, Week 12 (EOT), MMRM, mITT
[28] = 400 mg TID, Week 12, observed/LOCF imputed, mITT
[29] = 400 mg TID, Week 12, reduced model, mITT

CC(C)(C=C(C#N)C(=O)N1CCC[C@@H](n2nc(-c3ccc(Oc4ccccc4)cc3F)c3c(N)ncnc32)C1)N1CCN(C2COC2)CC1 (mixture of isomers) [rilzabrutinib, (R)-2-[3-[4-amino-3-(2-fluoro-4-phenoxy-phenyl)pyrazolo[3,4-d]pyrimidin-1-yl]piperidine-1-carbonyl]-4-methyl-4-[4-(oxetan-3-yl)piperazin-1-yl]pent-2-enenitrile]
Pre-bronchodilator FEV1 change from baseline, LS Mean Diff vs. placebo [1]: -0.12 L
Pre-bronchodilator FEV1 change from baseline, Mean [1]: -0.07 L
Pre-bronchodilator FEV1 change from baseline, LS Mean [2]: -0.12 L
Pre-bronchodilator FEV1 change from baseline, LS Mean Diff vs. placebo [2]: -0.09 L
Pre-bronchodilator FEV1 change from baseline, Mean [2]: -0.12 L
Pre-bronchodilator FEV1 change from baseline, LS Mean [3]: -0.15 L
Pre-bronchodilator FEV1 change from baseline, LS Mean Diff vs. placebo [3]: -0.09 L
Pre-bronchodilator FEV1 change from baseline, Mean [3]: -0.17 L
Pre-bronchodilator FEV1 change from baseline, LS Mean [4]: -0.10 L
Pre-bronchodilator FEV1 change from baseline, LS Mean Diff vs. placebo [4]: -0.11 L
Pre-bronchodilator FEV1 change from baseline, Mean [4]: -0.20 L
Pre-bronchodilator FEV1 change from baseline, LS Mean [5]: -0.16 L
Pre-bronchodilator FEV1 change from baseline, LS Mean Diff vs. placebo [5]: -0.08 L
Pre-bronchodilator FEV1 change from baseline, Mean [5]: -0.17 L
Pre-bronchodilator FEV1 change from baseline, LS Mean [6]: -0.13 L
Pre-bronchodilator FEV1 change from baseline, LS Mean Diff vs. placebo [6]: -0.07 L
Pre-bronchodilator FEV1 change from baseline, Mean [6]: -0.12 L
Pre-bronchodilator FEV1 change from baseline, LS Mean [7]: -0.33 L
Pre-bronchodilator FEV1 change from baseline, LS Mean Diff vs. placebo [7]: -0.11 L
Pre-bronchodilator FEV1 change from baseline, Mean [7]: -0.13 L
Pre-bronchodilator FEV1 change from baseline, LS Mean [8]: -0.17 L
Pre-bronchodilator FEV1 change from baseline, LS Mean Diff vs. placebo [8]: -0.05 L
Pre-bronchodilator FEV1 change from baseline, Mean [8]: -0.17 L
Pre-bronchodilator FEV1 change from baseline, LS Mean [9]: -0.13 L
Pre-bronchodilator FEV1 change from baseline, LS Mean Diff vs. placebo [9]: -0.05 L
Pre-bronchodilator FEV1 change from baseline, Mean [9]: -0.15 L
Pre-bronchodilator FEV1 change from baseline, LS Mean [10]: -0.04 L
Pre-bronchodilator FEV1 change from baseline, LS Mean Diff vs. placebo [10]: -0.04 L
Pre-bronchodilator FEV1 change from baseline, Mean [10]: -0.10 L
Pre-bronchodilator FEV1 change from baseline, LS Mean [11]: -0.16 L
Pre-bronchodilator FEV1 change from baseline, LS Mean Diff vs. placebo [11]: -0.20 L
Pre-bronchodilator FEV1 change from baseline, Mean [11]: -0.16 L
Pre-bronchodilator FEV1 change from baseline, LS Mean [12]: -0.03 L
Pre-bronchodilator FEV1 change from baseline, LS Mean Diff vs. placebo [12]: -0.04 L
Pre-bronchodilator FEV1 change from baseline, Mean [12]: -0.10 L
Pre-bronchodilator FEV1 change from baseline, LS Mean [13]: -0.09 L
Pre-bronchodilator FEV1 change from baseline, LS Mean Diff vs. placebo [13]: -0.08 L
Pre-bronchodilator FEV1 change from baseline, Mean [13]: -0.13 L
Pre-bronchodilator FEV1 change from baseline, LS Mean [14]: -0.21 L
Pre-bronchodilator FEV1 change from baseline, LS Mean Diff vs. placebo [14]: -0.13 L
Pre-bronchodilator FEV1 change from baseline, Mean [14]: -0.19 L
Pre-bronchodilator FEV1 change from baseline, LS Mean [15]: -0.20 L
Pre-bronchodilator FEV1 change from baseline, LS Mean Diff vs. placebo [15]: -0.11 L
Pre-bronchodilator FEV1 change from baseline, Mean [15]: -0.17 L
Pre-bronchodilator FEV1 change from baseline, LS Mean [16]: -0.13 L
Pre-bronchodilator FEV1 change from baseline, LS Mean Diff vs. placebo [16]: -0.07 L
Pre-bronchodilator FEV1 change from baseline, Mean [16]: -0.15 L
Pre-bronchodilator FEV1 change from baseline, LS Mean [17]: -0.15 L
Pre-bronchodilator FEV1 change from baseline, LS Mean Diff vs. placebo [17]: -0.05 L
Pre-bronchodilator FEV1 change from baseline, Mean [17]: -0.17 L
Pre-bronchodilator FEV1 change from baseline, LS Mean (400 mg TID, Week 12, female): -0.11 L
Pre-bronchodilator FEV1 change from baseline, LS Mean Diff vs. placebo (400 mg TID, Week 12, female): -0.09 L
Pre-bronchodilator FEV1 change from baseline, Mean (400 mg TID, Week 12, female): -0.14 L
Pre-bronchodilator FEV1 change from baseline, LS Mean (400 mg TID, Week 12, male): -0.15 L
Pre-bronchodilator FEV1 change from baseline, LS Mean Diff vs. placebo (400 mg TID, Week 12, male): -0.09 L
Pre-bronchodilator FEV1 change from baseline, Mean (400 mg TID, Week 12, male): -0.16 L
Pre-bronchodilator FEV1 change from baseline, LS Mean [18]: -0.12 L
Pre-bronchodilator FEV1 change from baseline, LS Mean Diff vs. placebo [18]: -0.05 L
Pre-bronchodilator FEV1 change from baseline, Mean [18]: -0.21 L
Pre-bronchodilator FEV1 change from baseline, LS Mean [19]: -0.13 L
Pre-bronchodilator FEV1 change from baseline, LS Mean Diff vs. placebo [19]: -0.09 L
Pre-bronchodilator FEV1 change from baseline, Mean [19]: -0.15 L
Difference vs. placebo, LS mean change in pre-bronchodilator FEV1 (L) at Week 12 (400 mg TID, 95% CI −0.21, 0.03, p=0.1523): -0.09 L
Change from baseline in pre-bronchodilator FEV1, LS Mean (SE) (400 mg TID, all others, mITT): -0.09 L
Change from baseline in pre-bronchodilator FEV1, LS Mean Diff vs. placebo (95% CI) (400 mg TID, all others, mITT): -0.07 L
Change from baseline in pre-bronchodilator FEV1, Mean (SD) (400 mg TID, all others, mITT, n=30): -0.11 L
Change from baseline in pre-bronchodilator FEV1, LS Mean (SE) [20]: -0.20 L
Change from baseline in pre-bronchodilator FEV1, LS Mean Diff vs. placebo (95% CI) [20]: -0.14 L
Change from baseline in pre-bronchodilator FEV1, Mean (SD) (400 mg TID, low EOS (<0.15) and low FeNO (<25), mITT, n=16): -0.24 L
LS Mean change from baseline in pre-bronchodilator FEV1 (L) at Week 12 (400 mg TID, N=64, mITT): −0.13 (0.05) L
Pre-bronchodilator FEV1, mean [21]: 2.47 L
Pre-bronchodilator FEV1, median [21]: 2.37 L
Pre-bronchodilator FEV1 change from baseline, LS Mean [21]: -0.05 L
Pre-bronchodilator FEV1 change from baseline, LS Mean Diff vs. placebo [21]: -0.04 L
Pre-bronchodilator FEV1 change from baseline, Mean [21]: -0.04 L
Pre-bronchodilator FEV1 change from baseline, median [21]: -0.02 L
Pre-bronchodilator FEV1, mean [22]: 2.58 L
Pre-bronchodilator FEV1, median [22]: 2.50 L
Pre-bronchodilator FEV1 change from baseline, LS Mean [22]: -0.01 L
Pre-bronchodilator FEV1 change from baseline, LS Mean Diff vs. placebo [22]: 0.05 L
Pre-bronchodilator FEV1 change from baseline, Mean [22]: 0.02 L
Pre-bronchodilator FEV1 change from baseline, median [22]: -0.01 L
Pre-bronchodilator FEV1, mean [23]: 2.52 L
Pre-bronchodilator FEV1, median [23]: 2.37 L
Pre-bronchodilator FEV1 change from baseline, LS Mean [23]: -0.07 L
Pre-bronchodilator FEV1 change from baseline, LS Mean Diff vs. placebo [23]: 0.04 L
Pre-bronchodilator FEV1 change from baseline, Mean [23]: -0.07 L
Pre-bronchodilator FEV1 change from baseline, median [23]: -0.09 L
Pre-bronchodilator FEV1, mean [24]: 2.41 L
Pre-bronchodilator FEV1, median [24]: 2.38 L
Pre-bronchodilator FEV1 change from baseline, LS Mean [24]: -0.07 L
Pre-bronchodilator FEV1 change from baseline, LS Mean Diff vs. placebo [24]: 0.03 L
Pre-bronchodilator FEV1 change from baseline, Mean [24]: -0.12 L
Pre-bronchodilator FEV1 change from baseline, median [24]: -0.10 L
Pre-bronchodilator FEV1, mean [25]: 2.53 L
Pre-bronchodilator FEV1, median [25]: 2.50 L
Pre-bronchodilator FEV1 change from baseline, LS Mean [25]: -0.09 L
Pre-bronchodilator FEV1 change from baseline, LS Mean Diff vs. placebo [25]: 0.00 L
Pre-bronchodilator FEV1 change from baseline, Mean [25]: -0.10 L
Pre-bronchodilator FEV1 change from baseline, median [25]: -0.09 L
Change from baseline in pre-bronchodilator FEV1, Mean [26]: -0.14 L
Change from baseline in pre-bronchodilator FEV1, Median [26]: -0.09 L
Pre-bronchodilator FEV1, Mean [26]: 2.46 L
Pre-bronchodilator FEV1, Median [26]: 2.40 L
Change from baseline in pre-bronchodilator FEV1, LS Mean [27]: -0.16 L
Change from baseline in pre-bronchodilator FEV1, LS Mean diff vs. placebo [27]: -0.08 L
Change from baseline in pre-bronchodilator FEV1, Mean [28]: -0.15 L
Change from baseline in pre-bronchodilator FEV1, Median [28]: -0.12 L
Pre-bronchodilator FEV1, Mean [28]: 2.43 L
Pre-bronchodilator FEV1, Median [28]: 2.39 L
Pre-bronchodilator FEV1, mean [28]: 2.43 L
Pre-bronchodilator FEV1, median [28]: 2.39 L
Pre-bronchodilator FEV1 change from baseline, LS Mean [28]: -0.13 L
Pre-bronchodilator FEV1 change from baseline, LS Mean Diff vs. placebo [28]: -0.09 L
Pre-bronchodilator FEV1 change from baseline, Mean [28]: -0.15 L
Pre-bronchodilator FEV1 change from baseline, median [28]: -0.12 L
Change from baseline in pre-bronchodilator FEV1, LS Mean [29]: -0.13 L
Change from baseline in pre-bronchodilator FEV1, LS Mean diff vs. placebo [29]: -0.09 L
FEV1 change / improvement (in words): did not exhibit any change in FEV1
FEV1 change / improvement (in words) (listed as Rilzabrutinib): not associated with an improvement in FEV1 values
